According to ChEMBL document CHEMBL1137635, “Multiple antibiotics exert delayed effects against the Plasmodium falciparum apicoplast” (Antimicrob Agents Chemother, 2007):
Calls of active or inactive are those of the source. The calls are words filed in the database; no cut-off is given here.

Key:
Plasmodium falciparum [1] = assay: Antimalarial activity as 2nd generation ring-stage chloroquine-sensitive Plasmodium falciparum 3D7 after 48 hrs by flow cytometry; assay type: functional, organism-based; settings: 3D7, 48 h
Plasmodium falciparum [2] = assay: Antimalarial activity as 3rd generation ring-stage chloroquine-sensitive Plasmodium falciparum 3D7 after 48 hrs dose then 48 hrs drug-free; assay type: functional, organism-based; settings: 3D7, 48 h
Plasmodium falciparum [3] = assay: Antimalarial activity as 2nd generation ring-stage chloroquine-resistant Plasmodium falciparum W2 after 48 hrs by flow cytometry; assay type: functional, organism-based; settings: W2, 48 h
Plasmodium falciparum [4] = assay: Antimalarial activity as 3rd generation ring-stage chloroquine-resistant Plasmodium falciparum W2 after 48 hrs dose then 48 hrs drug-free; assay type: functional, organism-based; settings: W2, 48 h, read-out: IC50
Plasmodium falciparum [5] = assay: Antimalarial activity as arrested schizont maturation in chloroquine-sensitive Plasmodium falciparum 3D7 infected human erythrocytes after 48 hrs at 100 nM dosed 96 hrs post infection; assay type: functional, organism-based
Plasmodium falciparum [6] = assay: Antimalarial activity as segregation of apicoplast in chloroquine-sensitive ACP1-GFP-labeled Plasmodium falciparum 3D7 schizont infected human erythrocytes at 100 nM dosed 96 hrs post infection; assay type: functional, organism-based
Plasmodium falciparum [7] = assay: Antimalarial activity as segregation of apicoplast in chloroquine-sensitive Plasmodium falciparum 3D7 progeny infected human erythrocytes at 100 nM dosed 96 hrs post infection; assay type: functional, organism-based
Plasmodium falciparum [8] = assay: Antimalarial activity as abnormal apicoplast morphology in chloroquine-sensitive ACP1-GFP-labeled Plasmodium falciparum 3D7 trophozoite infected human erythrocytes at 2xIC50 dosed 96 hrs post infection; assay type: functional
Plasmodium falciparum [9] = assay: Antimalarial activity as parasitaemia against chloroquine-sensitive ACP1-GFP-labeled Plasmodium falciparum 3D7 trophozoite infected human erythrocytes at 2xIC50 dosed 96 hrs post infection; assay type: functional
[10] = Cmax in human at 1000 mg, po once daily for 3 days; assay type: ADME, organism-based; set-up: dose 1000 mg, route oral; settings: in vivo
[11] = Tmax in human at 1000 mg, po once daily for 3 days; assay type: ADME, organism-based; settings: in vivo
[12] = Half life in human at 1000 mg, po once daily for 3 days; assay type: ADME, organism-based; settings: in vivo
Plasmodium falciparum [13] = assay: Antimalarial activity as 3rd generation parasitaemia against chloroquine-sensitive Plasmodium falciparum 3D7 infected human erythrocytes after 96 hrs at 100 nM dosed 0-12 hrs post infection; assay type: functional
Plasmodium falciparum [14] = assay: Antimalarial activity as 3rd generation parasitaemia against chloroquine-sensitive Plasmodium falciparum 3D7 infected human erythrocytes after 96hrs at 100 nM dosed 0-24 hrs post infection; assay type: functional
Plasmodium falciparum [15] = assay: Antimalarial activity as 3rd generation parasitaemia against chloroquine-sensitive Plasmodium falciparum 3D7 infected human erythrocytes after 96hrs at 100 nM dosed 0-36 hrs post infection; assay type: functional
Plasmodium falciparum [16] = assay: Antimalarial activity as 3rd generation parasitaemia against chloroquine-sensitive Plasmodium falciparum 3D7 infected human erythrocytes after 96 hrs at 100 nM dosed 0-48 hrs post infection; assay type: functional
Plasmodium falciparum [17] = assay: Antimalarial activity as 3rd generation parasitaemia against chloroquine-sensitive Plasmodium falciparum 3D7 infected human erythrocytes after 96hrs at 100 nM dosed 12-24 hrs post infection; assay type: functional
Plasmodium falciparum [18] = assay: Antimalarial activity as 3rd generation parasitaemia against chloroquine-sensitive Plasmodium falciparum 3D7 infected human erythrocytes assessed after 96hrs at 100 nM dosed 12-36 hrs post infection; assay type: functional
Plasmodium falciparum [19] = assay: Antimalarial activity as 3rd generation parasitaemia against chloroquine-sensitive Plasmodium falciparum 3D7 infected human erythrocytes after 96hrs at 100 nM dosed 12-48 hrs post infection; assay type: functional
Plasmodium falciparum [20] = assay: Antimalarial activity as 3rd generation parasitaemia against chloroquine-sensitive Plasmodium falciparum 3D7 infected human erythrocytes after 96hrs at 100 nM dosed 24-36 hrs post infection; assay type: functional
Plasmodium falciparum [21] = assay: Antimalarial activity as 3rd generation parasitaemia against chloroquine-sensitive Plasmodium falciparum 3D7 infected human erythrocytes after 96hrs at 100 nM dosed 24-48 hrs post infection; assay type: functional
Plasmodium falciparum [22] = assay: Antimalarial activity as 3rd generation parasitaemia against chloroquine-sensitive Plasmodium falciparum 3D7 infected human erythrocytes after 96hrs at 100 nM dosed 36-48 hrs post infection; assay type: functional
[23] = Cmax in patient with kidney disease at 300 mg, po; assay type: ADME, organism-based; set-up: dose 300 mg, route oral; settings: human, in vivo
[24] = Tmax in patient with kidney disease at 300 mg, po; assay type: ADME, organism-based; settings: human, in vivo
Homo sapiens = assay: Half life in patient with kidney disease at 300 mg, po; assay type: ADME, organism-based; settings: in vivo
Plasmodium falciparum [25] = assay: Antimalarial activity as 3rd generation parasitaemia after 96 hrs against chloroquine-sensitive Plasmodium falciparum 3D7 infected human erythrocytes at 1 uM 0-12 hrs post invasion; assay type: functional
Plasmodium falciparum [26] = assay: Antimalarial activity as segregation of apicoplasts against chloroquine-sensitive Plasmodium falciparum 3D7 infected human erythrocytes at 1 uM 96 hrs post infection; assay type: functional, organism-based
Plasmodium falciparum [27] = assay: Antimalarial activity as segregation of apicoplasts against chloroquine-sensitive ACP1-GFP-labeled Plasmodium falciparum 3D7 schizont infected human erythrocytes at 1 uM 96 hrs post infection; assay type: functional, organism-based
Plasmodium falciparum [28] = assay: Antimalarial activity as arrested schizont maturation in chloroquine-sensitive Plasmodium falciparum 3D7 infected human erythrocytes after 48 hrs at 1 uM dosed 96 hrs post infection; assay type: functional, organism-based
[29] = Cmax in patient with tuberculosis at 600 mg, po once daily for 15 to 18 days; assay type: ADME, organism-based; set-up: dose 600 mg, route oral; settings: human, in vivo
[30] = Tmax in patient with tuberculosis at 600 mg, po once daily for 15 to 18 days; assay type: ADME, organism-based; settings: human, in vivo
[31] = Half life in patient with tuberculosis at 600 mg, po once daily for 15 to 18 days; assay type: ADME, organism-based; settings: human, in vivo
Plasmodium falciparum [32] = assay: Antimalarial activity as abnormal apicoplast morphology in chloroquine-sensitive ACP1-GFP-labeled Plasmodium falciparum 3D7 after 48 hrs at 2xIC50 dosed 96 hrs post infection; assay type: functional, organism-based
Plasmodium falciparum [33] = assay: Antimalarial activity in chloroquine-sensitive ACP1-GFP-labeled Plasmodium falciparum 3D7 after 48 hrs at 2xIC50 dosed 96 hrs post infection; assay type: functional, organism-based
Plasmodium falciparum [34] = assay: Antimalarial activity as 3rd generation parasitaemia after 96 hrs against chloroquine-sensitive Plasmodium falciparum 3D7 infected human erythrocytes at 1 uM 0-24 hrs post invasion; assay type: functional
Plasmodium falciparum [35] = assay: Antimalarial activity as 3rd generation parasitaemia after 96 hrs against chloroquine-sensitive Plasmodium falciparum 3D7 infected human erythrocytes at 1 uM 0-36 hrs post invasion; assay type: functional
Plasmodium falciparum [36] = assay: Antimalarial activity as 3rd generation parasitaemia after 96 hrs against chloroquine-sensitive Plasmodium falciparum 3D7 infected human erythrocytes at 1 uM 0-48 hrs post invasion; assay type: functional
Plasmodium falciparum [37] = assay: Antimalarial activity as 3rd generation parasitaemia after 96 hrs against chloroquine-sensitive Plasmodium falciparum 3D7 infected human erythrocytes at 1 uM treated 12-24 hrs post invasion; assay type: functional
Plasmodium falciparum [38] = assay: Antimalarial activity as 3rd generation parasitaemia after 96 hrs against chloroquine-sensitive Plasmodium falciparum 3D7 infected human erythrocytes at 1 uM 12-36 hrs post invasion; assay type: functional
Plasmodium falciparum [39] = assay: Antimalarial activity as 3rd generation parasitaemia after 96 hrs against chloroquine-sensitive Plasmodium falciparum 3D7 infected human erythrocytes at 1 uM 12-48 hrs post invasion; assay type: functional
Plasmodium falciparum [40] = assay: Antimalarial activity as 3rd generation parasitaemia after 96 hrs against chloroquine-sensitive Plasmodium falciparum 3D7 infected human erythrocytes at 1 uM 24-36 hrs post invasion; assay type: functional
Plasmodium falciparum [41] = assay: Antimalarial activity as 3rd generation parasitaemia after 96 hrs against chloroquine-sensitive Plasmodium falciparum 3D7 infected human erythrocytes at 1 uM 24-48 hrs post invasion; assay type: functional
Plasmodium falciparum [42] = assay: Antimalarial activity as 3rd generation parasitaemia after 96 hrs against chloroquine-sensitive Plasmodium falciparum 3D7 infected human erythrocytes at 1 uM 36-48 hrs post invasion; assay type: functional

SMILES: CC[C@H]1OC(=O)[C@H](C)[C@@H](O[C@H]2C[C@@](C)(OC)[C@@H](O)[C@H](C)O2)[C@H](C)[C@@H](O[C@@H]2O[C@H](C)C[C@H](N(C)C)[C@H]2O)[C@](C)(O)C[C@@H](C)CN(C)[C@H](C)[C@@H](O)[C@]1(C)O [AZITHROMYCIN]
- IC50 (Plasmodium falciparum [1]): 8670 nM
- IC50 (Plasmodium falciparum [2]): 52.7 nM
- IC50 (Plasmodium falciparum [3]): 1460 nM
- IC50 (Plasmodium falciparum [4]): 31 nM
- Activity (Plasmodium falciparum [5]): inactive
- Activity (Plasmodium falciparum [6]): Active
- Activity (Plasmodium falciparum [7]): Active
- Activity (Plasmodium falciparum [8]): 83.4%
- Activity (Plasmodium falciparum [9]): 105%
- Cmax [10]: 1100 nM
- Tmax [11]: 2.4 h
- half-life [12]: 74 h
- Activity (Plasmodium falciparum [13]): 91%
- Activity (Plasmodium falciparum [14]): 61%
- Activity (Plasmodium falciparum [15]): 30%
- Activity (Plasmodium falciparum [16]): 17%
- Activity (Plasmodium falciparum [17]): 59%
- Activity (Plasmodium falciparum [18]): 28%
- Activity (Plasmodium falciparum [19]): 18%
- Activity (Plasmodium falciparum [20]): 79%
- Activity (Plasmodium falciparum [21]): 68%
- Activity (Plasmodium falciparum [22]): 113%

SMILES: CCN(CC)CCCC(C)Nc1ccnc2cc(Cl)ccc12 (centres undefined) [CHLOROQUINE]
- Cmax [23]: 240 nM
- Tmax [24]: 6.6 h
- t1/2 (Homo sapiens): 240 h

SMILES: C[C@H]1c2cccc(O)c2C(=O)C2=C(O)[C@]3(O)C(=O)C(C(N)=O)=C(O)[C@@H](N(C)C)[C@@H]3[C@@H](O)[C@@H]21.O [DOXYCYCLINE]
- Activity (Plasmodium falciparum [25]): 89%
- IC50 (Plasmodium falciparum [1]): 5320 nM
- IC50 (Plasmodium falciparum [2]): 453 nM
- IC50 (Plasmodium falciparum [3]): 3300 nM
- IC50 (Plasmodium falciparum [4]): 211 nM
- Activity (Plasmodium falciparum [26]): Active
- Activity (Plasmodium falciparum [27]): Active
- Activity (Plasmodium falciparum [28]): inactive
- Activity (Plasmodium falciparum [8]): 83.6%
- Activity (Plasmodium falciparum [9]): 97.2%
- Cmax [29]: 6900 nM
- Tmax [30]: 2 h
- half-life [31]: 7 h
- Activity (Plasmodium falciparum [32]): Active
- Activity (Plasmodium falciparum [33]): Active
- Activity (Plasmodium falciparum [34]): 69%
- Activity (Plasmodium falciparum [35]): 24%
- Activity (Plasmodium falciparum [36]): 9%
- Activity (Plasmodium falciparum [37]): 44%
- Activity (Plasmodium falciparum [38]): 12%
- Activity (Plasmodium falciparum [39]): 13%
- Activity (Plasmodium falciparum [40]): 41%
- Activity (Plasmodium falciparum [41]): 87%
- Activity (Plasmodium falciparum [42]): 121%
